Laboratory results taken from patent publication US10829798B2, “DNA-linked enzyme-coupled assays” (THE REGENTS OF THE UNIVERSITY OF CALIFORNIA, priority 2014, dated 2020).

Key:
GT05 (UGT72B1 (Q9M156)) = target: T1, GT05 (UGT72B1 (Q9M156)) (Arabidopsis thaliana, UniProt Q9M156); assay: qPCR DLEnCA, cell-free transcription/translation-derived GT05; type: biochemical; settings: GT05 DNA 5 nM, chemical 1 mM, UDP-Glc 2 μM, probe 0.2 nM; low recovery = substrate glucosylated
T1 construct: made in house; host or cells: PURExpress In Vitro Protein Synthesis Kit (NEB E6800L), cell-free transcription/translation, linear DNA amplified from pET15b construct
T1 sequence (Q9M156 1-480): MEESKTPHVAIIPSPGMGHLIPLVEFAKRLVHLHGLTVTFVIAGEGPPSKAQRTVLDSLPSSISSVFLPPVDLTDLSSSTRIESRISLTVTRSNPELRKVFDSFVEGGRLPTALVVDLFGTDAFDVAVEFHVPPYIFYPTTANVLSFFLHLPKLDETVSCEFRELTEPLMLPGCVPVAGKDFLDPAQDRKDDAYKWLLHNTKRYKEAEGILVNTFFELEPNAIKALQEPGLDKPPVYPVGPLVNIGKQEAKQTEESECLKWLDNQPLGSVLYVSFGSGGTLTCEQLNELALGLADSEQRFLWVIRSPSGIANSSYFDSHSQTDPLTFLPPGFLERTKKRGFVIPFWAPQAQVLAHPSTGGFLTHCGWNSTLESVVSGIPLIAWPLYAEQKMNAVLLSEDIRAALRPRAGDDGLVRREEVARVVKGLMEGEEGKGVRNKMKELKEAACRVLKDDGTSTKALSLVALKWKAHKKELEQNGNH
Method: (§1) FIG. 4A-FIG. 4D. qPCR DLEnCA and substrate specificity studies. A. Chemicals used as substrates in subsequent assays: (i) known substrates of OleD; (ii) flavone library; (iii) known substrates of GT05 (UGT72B1 (Q9M156)) and GT06 (UGT89B1 (AT1 G73880)). B. DNA encoding OleD (5 nM) was incubated in a cell-free transcription/translation system for 3 hours at 37° C., followed by the addition of chemical (1 mM) and UDP-Glc (2 μM). After a subsequent incubation of 3 hours, TbGT and probe (0.2 nM) were added. After probe purification and MfeI digestion, probe integrity was identified using qPCR. Percent recovery of probe is reported (n=8; error bars=standard error). C. DNA encoding OleD (5 nM) was incubated for 3 hours at 37° C. in a cell-free transcription/translation system, followed by the addition of flavone (1 mM) and UDP-Glc (2 μM). After a subsequent incubation of 3 hours, TbGT and probe (0.2 nM) were added. After probe purification and MfeI addition, probe integrity was identified using qPCR. Percent recovery of probe is reported (n=8; error bars=standard error). D. DNA encoding OleD, GT05, or GT06 (5 nM) were incubated for 3 hours at 37° C. in a cell-free transcription/translation system, followed by the addition of chemical (1 mM) and UDP-Glc (2 μM). After a subsequent incubation of 3 hours, TbGT and probe (0.2 nM) were added. After probe purification and MfeI digestion, probe integrity was identified using qPCR. Percent recovery of probe is reported as a heat map (n=8) (specific recovery figures and percent error can be found in FIG. 16). *=p<0.05 vs. no chemical control.
PCR tubes were used for most reactions. All incubations were performed at 37° C. Assays were initiated upon the addition of linear DNA (5 nM final concentration) to 4 μl PURExpress Solution A and 3 μl PURExpress Solution B. Samples were incubated at 37° C. for 3 hours prior to addition of UDP-Glucose and chemical (1 mM final concentration) in DMSO. Samples were incubated for an additional 3 hours prior to addition of 1 unit T4 Phage β-glucosyltransferase containing 0.2 nM probe. […]

[1] = target: T2, GT06 (UGT89B1 (AT1G73880)) (Arabidopsis thaliana, UniProt Q9C9B0); assay: qPCR DLEnCA, cell-free transcription/translation-derived GT06; type: biochemical; settings: GT06 DNA 5 nM, chemical 1 mM, UDP-Glc 2 μM, probe 0.2 nM; low recovery = substrate glucosylated
T2 sequence (Q9C9B0 1-473): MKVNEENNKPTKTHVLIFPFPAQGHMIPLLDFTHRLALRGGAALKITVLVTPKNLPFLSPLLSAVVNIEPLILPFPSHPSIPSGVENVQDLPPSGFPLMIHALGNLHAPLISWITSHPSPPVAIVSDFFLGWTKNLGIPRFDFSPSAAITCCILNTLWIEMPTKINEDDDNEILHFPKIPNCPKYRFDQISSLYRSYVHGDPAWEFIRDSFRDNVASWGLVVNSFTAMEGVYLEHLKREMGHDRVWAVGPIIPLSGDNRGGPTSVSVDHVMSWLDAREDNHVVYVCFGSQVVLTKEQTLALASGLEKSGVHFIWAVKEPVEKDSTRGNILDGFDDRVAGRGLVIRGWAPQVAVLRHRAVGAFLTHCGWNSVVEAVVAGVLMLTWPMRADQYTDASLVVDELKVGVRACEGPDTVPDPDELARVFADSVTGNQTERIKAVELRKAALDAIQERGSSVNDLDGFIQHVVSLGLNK
Method: as §1, with “After probe purification and MfeI digestion, probe integrity was identified using qPCR. Percent recovery of probe is reported as a heat map (n=8) (specific recovery figures and percent error can be found in FIG. 16). *=p<0.05 vs. no chemical control.” left out

OleD [2] = target: T3, OleD (Streptomyces antibioticus, UniProt Q53685, P55A/R82V/R83E/T84P); assay: qPCR DLEnCA, cell-free transcription/translation-derived OleD; type: biochemical; settings: OleD DNA 5 nM, UDP-Glc 2 μM, probe 0.2 nM; for recovery of intact probe DNA: chemical 1 mM, low recovery = substrate glucosylated; for significant loss in protection of the DNA probe: flavone 1 mM
T3 construct: made in house; host or cells: PURExpress In Vitro Protein Synthesis Kit (NEB E6800L), cell-free transcription/translation, linear DNA with T7 promoter
Method: as §1
PCR tubes were used for most reactions. All incubations were performed at 37° C. Assays were initiated upon the addition of linear DNA (5 nM final concentration) to 4 μl PURExpress Solution A and 3 μl PURExpress Solution B. Samples were incubated at 37° C. for 3 hours prior to addition of UDP-Glucose and chemical (1 mM final concentration) in DMSO. Samples were incubated for an additional 3 hours prior to addition of 1 unit T4 Phage β-glucosyltransferase containing 0.2 nM probe. Samples were incubated an additional 3 hours before DNA was purified using the Zymo DNA Clean and Concentrator Kit. Samples were digested overnight with MfeI prior to analysis. Concentration of intact DNA probe was identified using the iQ SYBR Green Supermix (1708880) with probe DNA as standards. qPCR was carried out on the Bio-Rad iQ5 Multicolor Real-Time PCR Detection System using primers P13 and P14 with the following temperatures; 94° C. 30 seconds followed by 40 cycles of 94° C. 10 seconds and 55° C. for 30 seconds. All results were compared to uncut probe DNA that had been carried through the process as negative controls (considered full recovery of probe).
The second DLEnCA workflow developed involved qPCR as a final readout (qPCR DLEnCA, FIG. 1—qPCR workflow). A linear fragment of DNA was modified to contain 5-hm-cytosines throughout. To determine a threshold for probe protection under conditions amenable to the qPCR DLEnCA workflow, UDP-Glc was titrated into mixtures of the cell-free transcription/translation system containing 5-hm-cytosine-modified DNA probe (0.2 nM probe DNA containing 0.1 μM modified 5-hm-cytosines) and TbGT. After digestion with the restriction enzyme MfeI, the amount of intact DNA probe was determined using qPCR (FIG. 3C). […] A threshold for protection was identified at a 20:1 molar ratio of UDP-Glc to total 5-hm-cytosine in probe DNA; this UDP-Glc amount was used as the starting concentration of UDP-Glc for all qPCR experiments. To test the feasibility of qPCR DLEnCA, OleD was again tested upon the substrate kaempferol (FIG. 3D), using DNA encoding a promoter and OleD as starting material. As expected, when all components of the assay were present, 27% of intact probe DNA was recovered. […]

OleD [3] = settings: Williams 2007; Choi 2012; Yang 2005; cited from earlier work
OleD [4] = target: T3, OleD; assay: LCMS analysis of OleD-catalyzed glucosylation in cell-free reactions; type: biochemical; settings: equal-molar chemical and UDP-glucose, PURExpress, 3 hours at 37° C.
Excerpt: Determination of glucosylation was accomplished by means of an LCMS system consisting of an Agilent Technologies 1200 series HPLC with an Agilent Technologies 6520 Accurate Mass qTOF LC/MS. An Eclipse Plus C18 (4.6 mm×100 mm i.d., 3.5-μm packing, Agilent Technologies) reverse-phase column with a guard Zorbax Eclipse Plus C18 column ([…], 5 μm packing, Agilent Technologies) was used for separating the samples. Water+0.1% Formic Acid and Acetonitrile+0.1% Formic Acid were used as mobile phases at a flow rate of 500 μl/min. The elution gradient water/acetonitrile ratio) was ramped as follows: 98:2 (v/v) (0-2 min), 98:2-5:95 (v/v) linearly (2-17 min), 5:95 (v/v) (17-27 min), and 5:95-98-2 (v/v) (27-28 min). Full scanning mode (50-750 m/z) was used for data acquisition in a positive-ion mode, and the operation parameters were as follows: ESI probe capillary voltage, +3.5 kV with a scan rate of 1.01 scans/second. The nebulizer gas flow rate was 7 L/min. During the analysis two references (121.0509 m/z (C5H4N4) and 922.0098 m/z (C18H18O6N3P3F24)) were continuously measured to allow constant mass correction.
Samples were prepared directly from cell-free reactions. Equal-molar amounts of chemical and UDP-glucose were incubated with DNA encoding the glucosyltransferase of interest or water in PURExpress for 3 hours at 37° C. […]

T3 sequence (Q53685 other isoform, or with tags, fused parts or gaps P55A/R82V/R83E/T84P): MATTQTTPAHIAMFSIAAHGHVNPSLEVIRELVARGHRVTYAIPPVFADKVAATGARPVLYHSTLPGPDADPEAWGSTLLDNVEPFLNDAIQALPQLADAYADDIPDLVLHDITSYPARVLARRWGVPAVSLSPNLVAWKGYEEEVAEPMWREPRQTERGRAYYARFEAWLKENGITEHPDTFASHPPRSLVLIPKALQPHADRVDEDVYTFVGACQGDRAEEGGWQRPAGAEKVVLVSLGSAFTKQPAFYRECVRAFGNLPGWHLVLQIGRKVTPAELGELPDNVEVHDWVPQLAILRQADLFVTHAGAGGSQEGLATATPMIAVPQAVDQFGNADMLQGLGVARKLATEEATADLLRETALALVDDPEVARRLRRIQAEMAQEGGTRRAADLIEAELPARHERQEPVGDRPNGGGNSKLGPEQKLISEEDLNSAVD

Structure (SMILES)	recovery of intact probe DNA (OleD [2]) [%]	OleD substrate quality reported in previous studies (OleD [3])	further results
O=C(O)c1ccc(O)c(O)c1 [XII, 3,4-dihydroxybenzoic acid]	–	–	recovery of probe (GT05 (UGT72B1 (Q9M156))): 40%; recovery of probe [1]: 30%
O=c1cc(-c2ccccc2)oc2cc(O)ccc12 [IX, 7-hydroxyflavone]	39	–	–
O=c1cc(-c2ccc(O)cc2)oc2ccccc12 [VII, 4-hydroxyflavone]	–	–	significant loss in protection of the DNA probe (OleD [2]): not the case
O=C(O)c1cccc(O)c1 [X, 3-hydroxybenzoic acid]	–	–	recovery of probe (GT05 (UGT72B1 (Q9M156))): 33%
Cc1cc(=O)oc2cc(O)ccc12 [III, 4-methylumbelliferone]	60	slower rate or with less efficiency than with (I)	identification as OleD substrate by LCMS (OleD [4]): identified the chemicals as substrates
O=c1c(O)c(-c2ccccc2)oc2ccccc12 [VI, 3-hydroxyflavone]	42	–	–
O=C(O)Cc1cc(=O)oc2cc(O)ccc12 [IV, 7-hydroxycoumarin-4-acetic acid]	82	very weak substrates	–
O=C(O)c1cc2ccc(O)cc2oc1=O [V, 7-hydroxycoumarin-3-carboxylic acid]	97	very weak substrates	–
O=c1cc(-c2ccccc2)oc2cccc(O)c12 [VIII, 5-hydroxyflavone]	–	–	significant loss in protection of the DNA probe (OleD [2]): not the case
O=c1cc(-c2ccc(O)cc2)oc2cc(O)cc(O)c12 [II, apigenin]	42	slower rate or with less efficiency than with (I)	identification as OleD substrate by LCMS (OleD [4]): identified the chemicals as substrates
